Data from PubChem BioAssay (NCI).
Where “and” joins values, the source holds several entries; their conditions need not be identical. Equal values may be shown once.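 Method: 48-hour compound exposure of cells in 96-well plates, five concentrations, linear interpolation of endpoints. GI50: concentration for 50% inhibition of growth. The concentration for full growth arrest is given as TGI.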

Columns and labels:
Assay in all cases: NCI-60 cell line screen, 48 h
DLD-1 colon = test system: DLD-1 colon
DMS 114 small cell lung = test system: DMS 114 small cell lung
DMS 273 small cell lung = test system: DMS 273 small cell lung
HL-60(TB) leukemia = test system: HL-60(TB) leukemia
SNB-75 CNS = test system: SNB-75 CNS
SR leukemia = test system: SR leukemia
UO-31 renal = test system: UO-31 renal
CCRF-CEM leukemia = test system: CCRF-CEM leukemia
EKVX NSCLC = test system: EKVX NSCLC
HOP-62 NSCLC = test system: HOP-62 NSCLC
HS 578T breast = test system: HS 578T breast

SMILES	TGI (DLD-1 colon) [µM]	TGI (DMS 114 small cell lung) [µM]	TGI (DMS 273 small cell lung) [µM]	TGI (HL-60(TB) leukemia)	TGI (SNB-75 CNS) [µM]	TGI (SR leukemia) [µM]	TGI (UO-31 renal) [µM]	TGI (CCRF-CEM leukemia) [µM]	TGI (EKVX NSCLC) [µM]	TGI (HOP-62 NSCLC) [µM]	GI50 (HL-60(TB) leukemia) [µM]	GI50 (HOP-62 NSCLC) [µM]	TGI (HS 578T breast) [µM]	GI50 (SNB-75 CNS) [µM]	GI50 (SR leukemia) [nM]
CC1C[C@]2(C[C@@H](C)C(=O)O2)O[C@@H]2CC3(C)[C@@H]4CCC5C(C)(C)OC(=O)C[C@H]6OO[C@]4(CC[C@]3(C)C12)CC56O (stereo partly drawn)	> 100	> 100	> 100	> 100 µM	> 100	> 100	> 100								
CCCCN[C@H]1C2C3CC4C5CC(C42)C1(C)C53 (stereo partly drawn)	> 100	> 100	> 100	> 100 µM	> 100	> 100	> 100	> 100	> 100	> 100					
COc1ccc(-c2cc(-c3cc(Cl)cc(Br)c3O)[nH]c(=O)n2)cc1	38.4	38	31.1	48.5 µM	38.3	51.8	34.7	70.7	27.3	28.1					
O=S1(=O)CS(=O)(=O)OCCO1	164	108	215	93.1 µM and 61.8 µM	57.2		134	252	273	50.9	23.9	> 85.2	176	56.9	1150
COC(=O)N/N=C(/CCC(=O)Nc1ccc(C)c(C)c1)CC(=O)C(C)(C)C	> 100	> 100	> 100	> 100 µM	> 100		> 100	> 100	> 100	> 100					
CCOC(=O)C1=C(C)N(NC(N)=O)C(C)(O)C12CCOC2=O (stereo not drawn)	> 100		> 100	> 100 µM	> 100	> 100	> 100		> 100	> 100					
CCCCCCCCCCCCCCCC(=O)OCC1OC(OC)C2NP(=O)(N(CCCl)CCCl)OC1C2O (stereo not drawn)	14.5	9.31	5.09	4.48 µM	15.2	1.78	35.1	9.26	47.4	10.8					
COC(=O)C(CBr)CBr	8.29	4.23	29.3	1.41 µM	31.4		10.2	1.83	21.5	40.7			19.4		
CCOC(=N)CC(=O)Nc1cccc(Cl)c1	> 100		> 100	> 100 µM	> 100	> 100	> 100	> 100	> 100	> 100					
CC1(C)C(=O)/C=C\C(=O)C(C)(C)C(=O)/C=C\C(=O)C(C)(C)C(=O)/C=C\C(=O)C(C)(C)C(=O)/C=C\C1=O	30.1		37.4	10.4 µM	99.4	27.8	56	23.4	69.6	> 100			> 100		
COc1cc2c(cc1OC)NC(=O)NC(Cc1ccc3c(c1)OCO3)CC2 (stereo not drawn)	> 100	> 100	> 100	> 100 µM	> 100		> 100	> 100	> 100	> 100					
O=C(CC1(O)C(=O)Nc2ccccc21)c1ccc(O)cc1 (stereo not drawn)	> 100	> 100	> 100	> 100 µM	> 100	> 100	> 100	> 100	> 100	> 100					
Clc1ccc2nc(-c3ccccc3)nc(Cl)c2c1	> 100	> 100	> 100	31.1 µM	59.5	> 100	> 100	> 100	> 100	79.9					
CC1=C(C(=O)Nc2ccc([N+](=O)[O-])cc2)C(c2ccc3c(c2)OCO3)C(C(=O)Nc2ccc([N+](=O)[O-])cc2)=C(C)N1	> 100	> 100	97.4		45.7		> 100		> 100	> 100					
CCOC(=O)[C@H]1Nc2ccc([N+](=O)[O-])cc2C2c3ccccc3CC21 (stereo partly drawn)	> 100	54	34.9		> 100	> 100	44	43.8		39					
O=c1c(NO)c([N+](=O)[O-])cnn1-c1ccccc1	10.2	35.3	13.4	3.14 µM	28.4		12.9	2.8	29.8	23.1			11		
C=CC1(NS(=O)(=O)c2ccc(C)cc2)CCC(C(C)(C)C)CC1 (stereo not drawn)	> 100	> 100	> 100	> 100 µM	54.1	> 100	> 100	> 100		> 100					
CC1(C)C=N[N+]2(C)C3C=CC(CC3)C12 (stereo not drawn)	> 100	> 100		> 100 µM	> 100	> 100	> 100	> 100	> 100	> 100					
O=[N+]([O-])c1ccccc1C=NC12CC3CC(CC(C3)C1)C2	> 100		> 100	57.1 µM	> 100		> 100	> 100	> 100	> 100					
CN[C@@H](C)[C@H](N)c1ccccc1	> 100		> 100		> 100		> 100	> 100	> 100						
CCOC(=O)c1oc2ccc([N+](=O)[O-])c3c2c1CCC3	> 100	> 100	> 100	> 100 µM	33.5	> 100	> 100	> 100	> 100	58.9			> 85		
CNS(=O)(=O)NN(C)S(=O)(=O)c1ccc2ccccc2c1	> 100	> 100	> 100	> 100 µM	> 100	> 100	> 100	> 100	> 100	> 100					
Cc1ccc(NC(=S)SCCC(=O)O)cc1		> 100	> 100	> 100 µM		> 100	> 100	> 100	> 100	> 100					
COc1ccc(/C(Cl)=C(\c2ccc(OCCN(C)C)cc2)c2ccc(OC(=O)C(C)(C)C)cc2)cc1	26.6	24.6	17.5	21.1 µM	21.9	21.8	19.3	24.9	26.6	30.5					
C=C1C2CC(OC(C)=O)C3(C)C(c4ccoc4)OC(=O)[C@@H](O)[C@]13OC1C[C@H](OC(C)=O)C(C)(C)[C@H](CC(=O)OC)[C@]12C (stereo partly drawn)		> 100	> 100	> 100 µM	> 100		> 100	> 100	> 100						
O=[N+]([O-])c1cc(Cl)ccc1OCc1ccccc1	> 100	> 100	> 100	> 100 µM	90.8	> 100		> 100	> 100	> 100					
O=S(=O)([O-])[O-].[Cl-].[NH2-].[NH2-].[NH2-].[NH2-].[Ru+3].c1ccncc1	> 100		> 100	> 100 µM	> 100	> 100	> 100	> 100	> 100	> 100					
CC(CNCCCNCCNCCCNCO)[N+](=O)[O-] (stereo not drawn)	14.4	30.6	32.4	19.1 µM	35.3	28.4	32.3	11.5	29.9	> 100					
C/C(=N\N=C(\[Se])N(C)C)c1ccccn1	16.9	< 0.01	5.29	0.343 µM	15.5	23.7	13.9	2.1	11.6	1.33			40.6		
